This note sets out measurements from PMC10253812, “Novel 2-alkythio-4-chloro-N-[imino(heteroaryl)methyl]benzenesulfonamide Derivatives: Synthesis, Molecular Structure, Anticancer Activity and Metabolic Stability” (International Journal of Molecular Sciences, 2023).

The term IC50 denotes the concentration that gives 50% inhibition.

The structures appear in SMILES notation. Where two headings read alike, the source gives them in different places. A value given as a limit tells only on which side of the number the result lay.

Assay [1] relates to HCT-116 (colon cancer) cell line. Put plainly: MTT cell viability assay, HCT-116. The class given is cell-based. Conditions: Homo sapiens, 72 h of incubation. As to the method:
(§1) Compounds 8–24 were evaluated in vitro for their cytotoxic effect against three human cancer cell lines, i.e., HeLa (cervical cancer), HCT-116 (colon cancer) and MCF-7 (breast cancer), and the non-tumor cell line HaCaT using the MTT assay after 72 h of incubation. The results of tests are presented in Table 1 as IC50, indicating the concentration required for 50% inhibition of cell viability. Compounds 8–10 and 14–18 are not presented in the Table 1 because of their low potency (IC50 > 100 µM).
(§2) All chemicals, if not stated otherwise, were obtained from Sigma-Aldrich (St. Louis, MO, USA). The MCF-7, HeLa and HaCaT cell lines were purchased from Cell Lines Services (Eppelheim, Germany), and the HCT-116 cell line was purchased from ATCC (ATCC-No: CCL-247). The cells were cultured in Dulbecco’s modified Eagle’s medium (DMEM) supplemented with 10% fetal bovine serum, 2 mM glutamine, 100 units/mL of penicillin and 100 μg/mL of streptomycin. The cultures were maintained in a humidified atmosphere with 5% CO2 at 37 °C, in an incubator (Heraeus, HeraCell).
(§3) Cytotoxicity assay: Cell viability was determined using the MTT (3-(4,5-dimethylthiazol-2-yl)-2,5diphenyltetrazoliumbromide) assay. The cells were seeded in 96-well plates at a density of 5 × 10^3 cells/well and treated for 24, 48 and 72 h with the examined compounds in the concentration range 1–100 μM. Following treatment, MTT (0.5 mg/mL) was added to the medium, and the cells were further incubated for 2 h at 37 °C. the cells were lysed with DMSO, and the absorbance of the formazan solution was measured at 550 nm with a plate reader (Victor, 1420 multilabel counter). The experiment was performed in triplicate. The values are expressed as the mean ± SD of at least three independent experiments.
For orientation: Tetrazolium dyes change colour on reduction, which living cells bring about.

The test system of assay [2] is caspase activity in HeLa cells. Put plainly: Caspase activity determination (FLICA, FAM-VAD-FMK), flow cytometry. The class given is cell-based, human. To be noted: HeLa, 5, 7 and 10 µM, 24 h. Here is the method: Apoptosis induction was further determined by examining the effects of 11, 12 and 13 on caspase activation in HeLa cells. Caspase activity induction was determined with the use of the fluorescently labeled caspase inhibitor-FAM-VAD-FMK (a carboxyfluorescein derivative of valylalanylaspartic acid fluoromethyl ketone). The caspase inhibitor binds to active caspases inhibiting their enzymatic activity, thus allowing caspase activity quantification through determining the fluorescent intensity of the bound inhibitor. […] Increased caspase activation was shown by the increased fluorescence of the caspase inhibitor in the cell population, as indicated in Figure 6.
Caspase Activity Determination: Caspase activity was determined with the FLICA Apoptosis Detection Kit (Immunochemistry Technologies) according to the manufacturer’s instructions. The cells were treated with comp. 11, 12 and 13 (5, 7 and 10 µM) for 24 h, after which the cells were collected and suspended in a buffer containing the caspase inhibitor, i.e., a carboxyfluorescein-labeled fluoromethyl ketone peptide. The cells were subsequently incubated for 1 h at 37 °C under 5% CO2 and, next, they were washed with a washing buffer. The fluorescence intensity of fluorescein was determined by flow cytometry (BD FACSCalibur), and caspase activity was determined as the amount of fluorescence emitted from the caspase inhibitors bound to the caspases. The data were analyzed with Flowing software (version 2.5).
In general terms: Flow cytometry measures light scatter and fluorescence of single cells or particles in a stream.

The subject of assay [3] is HeLa (cervical cancer) cell line. Put plainly: MTT cell viability assay, HeLa. The class given is cell-based, human. Conditions: for IC50: Homo sapiens, HeLa. Here is the method:
as §1
The cytotoxic activity of 11–13 was determined in a time-dependent manner with the MTT assay (Figure 3).
HeLa cells were treated with 11, 12 and 13 in the concentration range of 0–20 µM. […] After 48 h, the IC50 values for compounds 11, 12 and 13 were 6, 7 and 6 µM, respectively.
as §2, §3

The mark [4] stands for this setting: MTT assay, 72 h of incubation, read-out: IC50 HeLa.
The mark [5] stands for this setting: MTT, 24 h of treatment, 0–20 µM.

`Cc1cc(S(=O)(=O)NC(=N)n2ccn(C)c2=S)c(SCc2ccc(Cl)cc2)cc1Cl` [Compound 11, 4-Chloro-N-[imino(3-methyl-2-thioxo-2,3-dihydro-1H-imidazol-1-yl)methyl]-5-methyl-2-(4-chlorobenzylthio)benzenesulfonamide]: the IC50 in assay [1] was determined as 11 ± 0.3 µM; in assay [3] (setting [4]), 6 ± 0.1 µM. The caspase activity induction entry in assay [2] is recorded as “induced caspase activity in HeLa cells in a dose-dependent manner”. Also, the “IC50 HeLa after 24 h” value in assay [3] (setting [5]) is “not reached”.

In the case of `Cc1cc(S(=O)(=O)NC(=N)n2ccn(C)c2=S)c(SCc2cc3c(cc2Cl)OCO3)cc1Cl` [Compound 12], the half-inhibitory concentration (IC50) in assay [1] was > 100 µM; in assay [3] (setting [4]), 7 ± 0.3 µM. In addition, in assay [2], the caspase activity induction entry is “induced caspase activity in HeLa cells in a dose-dependent manner”. In addition, in assay [3] (setting [5]), the “IC50 HeLa after 24 h” value was “not reached”.

As to `Cc1cc(S(=O)(=O)NC(=N)n2ccn(C)c2=S)c(SCc2cccc3ccccc23)cc1Cl` [Compound 13, 4-Chloro-N-[imino(3-methyl-2-thioxo-2,3-dihydro-1H-imidazol-1-yl)methyl]-5-methyl-2-(naphthalen-1-ylmethylthio)benzenesulfonamide], the concentration for half-maximal inhibition (IC50) in assay [1] worked out at 73 ± 2 µM; in assay [3] (setting [4]), 6 ± 0.1 µM; in assay [3] (MTT, 24 h of treatment, 0–20 µM, read-out: IC50 HeLa after 24 h) it was 18 µM. Besides, the caspase activity induction result in assay [2] was “induced caspase activity in HeLa cells in a dose-dependent manner”.
